What was measured:
Test in all cases: relative viability (nuclei count vs DMSO), 5 days (fraction); higher = more cells survive
BAM7 + Linsitinib = compound: CCOC1=CC=CC=C1N=NC2=C(NN(C2=O)C3=NC(=CS3)C4=CC=CC=C4)C [BAM7] + C[C@]1(O)C[C@@H](c2nc(-c3ccc4ccc(-c5ccccc5)nc4c3)c3c(N)nccn32)C1 [Linsitinib] (partner 1 µM)
In short: (§1)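 Relative viability equals treated-well nuclei counts divided by vehicle-well nuclei counts. Counts came from 4× images of lung cancer cell lines grown in 1536-well plates for 5 days after pin-tool dosing on the day after seeding. Dosing used one drug alone or a fixed anchor-drug dose plus five library-drug doses (not always all listed) in √10 steps, and values are medians of duplicate plates.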

[1] = compound: CCn1c(-c2nonc2N)nc2c(C#CC(C)(C)O)ncc(OC[C@H]3CCCNC3)c21 + C[C@@H](Oc1cc(-c2cnn(C3CCNCC3)c2)cnc1N)c1c(Cl)ccc(F)c1Cl [Crizotinib] (partner 1 µM)
In short: as §1

[2] = compound: CCn1c(-c2nonc2N)nc2c(C#CC(C)(C)O)ncc(OC[C@H]3CCCNC3)c21 + Nc1nc2[nH]cc(CCc3ccc(C(=O)N[C@@H](CCC(=O)O)C(=O)O)cc3)c2c(=O)[nH]1 [Pemetrexed] (partner 0.2 µM)
In short: as §1

[3] = compound: CCn1c(-c2nonc2N)nc2c(C#CC(C)(C)O)ncc(OC[C@H]3CCCNC3)c21 + O=C(c1cc(Cc2n[nH]c(=O)c3ccccc23)ccc1F)N1CCN(C(=O)C2CC2)CC1 [Olaparib] (partner 8 µM)
In short: as §1

Cell Line | relative viability (BAM7 + Linsitinib; first compound 0.5 µM) | relative viability (BAM7 + Linsitinib; first compound 5 µM) | relative viability (BAM7 + Linsitinib; first compound 15.81 µM) | relative viability (BAM7 + Linsitinib; first compound 50 µM) | relative viability ([1]; first compound 0.01 µM) | relative viability ([1]; first compound 0.03162 µM) | relative viability ([1]; first compound 0.1 µM) | relative viability ([1]; first compound 0.3162 µM) | relative viability ([1]; first compound 1 µM) | relative viability ([2]; first compound 0.01 µM) | relative viability ([2]; first compound 0.03162 µM) | relative viability ([2]; first compound 0.1 µM) | relative viability ([2]; first compound 0.3162 µM) | relative viability ([2]; first compound 1 µM) | relative viability ([3]; first compound 0.01 µM) | relative viability ([3]; first compound 0.03162 µM) | relative viability ([3]; first compound 0.1 µM) | relative viability ([3]; first compound 0.3162 µM) | relative viability ([3]; first compound 1 µM)
NCI-H838 | 1.12 | 1.06 | 0.982 | 0.994 | 0.805 | 0.969 | 0.826 | 0.835 | 0.841 | 0.248 | 0.251 | 0.238 | 0.225 | 0.255 | 0.74 | 0.838 | 0.804 | 0.726 | 0.76
NCI-H1755 | 1.01 | 1.06 | 1.02 | 0.978 | 0.877 | 0.866 | 0.84 | 0.892 | 0.849 | 0.476 | 0.439 | 0.419 | 0.393 | 0.383 | 0.969 | 0.891 | 0.873 | 0.847 | 0.917
HCC-78 | 0.544 | 0.393 | 0.376 | 0.585 | 0.344 | 0.353 | 0.324 | 0.297 | 0.322 | 0.864 | 0.92 | 0.952 | 0.871 | 0.669 | 0.739 | 0.732 | 0.827 | 0.794 | 0.564
NCI-H322M | 0.892 | 0.805 | 0.949 | 0.845 | 0.969 | 0.981 | 0.9 | 0.811 | 0.914 | 0.634 | 0.571 | 0.556 | 0.568 | 0.571 | 0.779 | 0.71 | 0.693 | 0.749 | 0.831
NCI-H3122 | 0.969 | 1.08 | 1 | 1.02 | 0.276 | 0.312 | 0.264 | 0.283 | 0.276 | 0.206 | 0.208 | 0.201 | 0.195 | 0.2 | 0.591 | 0.62 | 0.632 | 0.559 | 0.609
COR-L23 | 0.979 | 0.989 | 0.852 | 0.852 | 0.612 | 0.724 | 0.56 | 0.662 | 0.604 | 0.212 | 0.207 | 0.202 | 0.187 | 0.196 | 0.329 | 0.429 | 0.357 | 0.379 | 0.376
NCI-H2087 | 0.974 | 1.27 | 0.893 | 0.903 | 0.729 | 0.748 | 0.942 | 0.847 | 0.732 | 0.614 | – | 0.646 | 0.615 | 0.613 | 0.528 | – | 0.533 | 0.569 | 0.543
LC-2-ad | 0.856 | 0.898 | 0.812 | 0.783 | 0.452 | 0.483 | 0.448 | 0.493 | 0.479 | 0.267 | 0.283 | 0.261 | 0.262 | 0.272 | 0.739 | 0.719 | 0.716 | 0.657 | 0.698
NCI-H1915 | 1.08 | 1.2 | 1.08 | 1.1 | 0.909 | 0.909 | 0.809 | 0.872 | 0.856 | 0.452 | 0.514 | 0.487 | 0.444 | 0.49 | 0.258 | 0.277 | 0.225 | 0.249 | 0.255
NCI-H2023 | 0.657 | 0.689 | 0.64 | 0.67 | 0.683 | 0.67 | 0.557 | 0.583 | 0.549 | 0.211 | 0.26 | 0.211 | 0.176 | 0.178 | 0.501 | 0.454 | 0.437 | 0.381 | 0.475
COR-L 105 | 1.14 | 0.801 | 1 | 0.97 | 0.692 | 1.05 | 0.731 | 0.731 | 0.875 | 1.18 | 1.21 | 1.18 | 1.23 | 1.3 | 0.658 | 0.759 | 0.689 | 0.696 | 1.19
RERF-LC-KJ | 0.862 | 0.775 | 0.833 | 0.929 | 0.808 | 0.788 | 0.815 | 0.829 | 0.837 | 0.486 | 0.442 | 0.432 | 0.478 | 0.488 | 1 | 0.87 | 0.854 | 0.854 | 0.797
LXF-289 | 1.02 | 1.04 | 0.955 | 0.962 | 0.856 | 0.815 | 0.797 | 0.758 | 0.828 | 0.922 | 0.95 | 0.925 | 0.84 | 0.938 | 1.06 | 1.1 | 1.03 | 0.973 | 1.05
PC-14 | 0.984 | 1.04 | 0.953 | 0.975 | 0.925 | 0.863 | 0.944 | 0.94 | 0.839 | 0.127 | 0.126 | 0.14 | 0.136 | 0.147 | 0.309 | 0.244 | 0.34 | 0.378 | 0.412
NCI-H650 | 0.867 | 0.95 | 0.825 | 1.19 | 0.561 | 0.697 | 0.683 | 0.68 | 0.666 | 0.957 | 0.862 | 0.988 | 1.02 | 0.919 | 0.387 | 0.43 | 0.435 | 0.371 | 0.392

From the supplement of paper PMC10307832
